One assay addresses RET kinase (Homo sapiens, UniProt P07949). Kind of assay: RET kinase biochemical assay. The note with it: read-out: RET (IC50), mean of at least n = 3.
In the next assay the test system is KM-12 cells. As to the kind of experiment: Cell viability, TRKA-driven matched control. The assay is classed as cell-based. The note with it: read-out: KM-12 (EC50).
The target in another assay is TRKA (Homo sapiens, UniProt P04629). Kind of assay: TRKA kinase biochemical assay. Conditions: read-out: TRKA (IC50), mean of at least n = 3.
Sequence of TRKA (P04629 33-796): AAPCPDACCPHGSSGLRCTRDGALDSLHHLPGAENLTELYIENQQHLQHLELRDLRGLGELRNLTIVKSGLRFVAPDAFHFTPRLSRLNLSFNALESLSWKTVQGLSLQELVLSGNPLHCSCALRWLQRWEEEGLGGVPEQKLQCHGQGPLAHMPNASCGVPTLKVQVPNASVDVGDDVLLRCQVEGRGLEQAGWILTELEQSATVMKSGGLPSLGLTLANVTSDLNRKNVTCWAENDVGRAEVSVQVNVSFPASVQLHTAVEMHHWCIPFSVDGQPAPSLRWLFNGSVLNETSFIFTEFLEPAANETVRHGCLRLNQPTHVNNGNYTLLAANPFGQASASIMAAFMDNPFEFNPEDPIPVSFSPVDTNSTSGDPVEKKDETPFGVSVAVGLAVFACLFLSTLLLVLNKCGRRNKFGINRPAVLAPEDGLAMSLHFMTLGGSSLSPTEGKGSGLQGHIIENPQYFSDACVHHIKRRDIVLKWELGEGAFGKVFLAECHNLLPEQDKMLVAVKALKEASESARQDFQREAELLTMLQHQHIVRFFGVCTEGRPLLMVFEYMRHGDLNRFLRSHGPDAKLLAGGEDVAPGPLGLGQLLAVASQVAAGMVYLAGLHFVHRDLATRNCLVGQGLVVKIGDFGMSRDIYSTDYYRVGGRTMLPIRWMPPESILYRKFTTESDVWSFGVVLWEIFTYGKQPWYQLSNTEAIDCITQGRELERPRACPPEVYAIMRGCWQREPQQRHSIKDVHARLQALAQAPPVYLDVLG
Another assay deals with A549 cells. As to the kind of experiment: Cell viability, cytotoxic control. The assay is classed as cell-based. The note with it: read-out: A549 (EC50).
In assay [1] the test system is LC-2/ad cells (RET-CCDC6 fusion-driven NSCLC). Kind of assay: Cell viability, RET-driven cell line. The note with it: read-out: LC-2/ad (EC50). The assay is classed as cell-based.

Two compounds from PMC9969764 (ChemMedChem, 2021) can be followed below.

Sequence of RET kinase (P07949 29-1114): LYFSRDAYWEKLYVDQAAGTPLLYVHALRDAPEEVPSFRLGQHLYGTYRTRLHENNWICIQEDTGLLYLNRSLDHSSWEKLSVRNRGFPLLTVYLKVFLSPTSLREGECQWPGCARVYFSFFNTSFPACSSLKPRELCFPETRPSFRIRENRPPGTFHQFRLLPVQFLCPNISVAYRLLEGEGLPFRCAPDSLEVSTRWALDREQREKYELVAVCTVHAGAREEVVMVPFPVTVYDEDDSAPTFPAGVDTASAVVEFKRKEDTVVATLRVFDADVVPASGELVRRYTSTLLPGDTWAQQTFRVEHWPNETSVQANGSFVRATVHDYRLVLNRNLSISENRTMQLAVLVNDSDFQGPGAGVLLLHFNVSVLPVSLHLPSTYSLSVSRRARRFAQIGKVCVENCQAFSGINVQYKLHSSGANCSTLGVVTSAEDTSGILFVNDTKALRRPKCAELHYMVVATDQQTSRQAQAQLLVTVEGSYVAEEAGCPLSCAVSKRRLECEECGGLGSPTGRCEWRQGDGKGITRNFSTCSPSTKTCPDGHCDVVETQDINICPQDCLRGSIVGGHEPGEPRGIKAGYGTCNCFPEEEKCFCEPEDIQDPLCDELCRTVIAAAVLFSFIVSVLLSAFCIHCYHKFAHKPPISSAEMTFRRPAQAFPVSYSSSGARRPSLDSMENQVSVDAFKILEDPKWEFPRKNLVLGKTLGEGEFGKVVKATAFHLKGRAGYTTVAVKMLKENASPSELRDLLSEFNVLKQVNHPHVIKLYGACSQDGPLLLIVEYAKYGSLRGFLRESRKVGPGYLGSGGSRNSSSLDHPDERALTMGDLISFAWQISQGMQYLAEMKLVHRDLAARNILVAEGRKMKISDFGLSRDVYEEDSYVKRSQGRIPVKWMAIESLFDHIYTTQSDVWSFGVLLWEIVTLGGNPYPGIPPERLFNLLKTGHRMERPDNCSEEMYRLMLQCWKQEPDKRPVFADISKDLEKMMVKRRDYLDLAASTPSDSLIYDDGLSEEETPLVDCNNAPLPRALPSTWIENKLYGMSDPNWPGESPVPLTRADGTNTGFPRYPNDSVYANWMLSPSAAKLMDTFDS

For the compound `Cn1nc(-c2ccccc2)c2c(N)ncnc21` [4a], on RET kinase, the IC50 turned out to be 6.82 ± 2.22 µM.
`Nc1ncnc2[nH]ncc12` [fragment 1, pyrazoloadenine]: the EC50 is 1.73 µM in the assay with KM-12 cells, 3.02 µM in the assay with A549 cells and 1.47 µM in assay [1]. Further, the IC50 was 57.1 µM at TRKA and 9.2 µM at RET kinase.

What is called IC50 is the concentration that gives 50% inhibition.
